These results are taken from paper PMC261875, “Biochemical Characterization of DNA Damage Checkpoint Complexes: Clamp Loader and Clamp Complexes with Specificity for 5′ Recessed DNA” (PLoS Biology, 2003).

The subject of assay [1] is T1, RFC (replication factor C).
T1 construct: gene RFC1
Kind of assay: bead pull-down of clamp-clamp loader-DNA ternary complex, Western blot. It counts as binding. As to conditions: 1 mM ATPγS, 7 mM MgCl2, pH 7.5, 30 °C; PCNA clamp, human RPA, 3' recessed primer-template DNA; nonhydrolyzable ATP analog. A general note: A western blot detects proteins with antibodies after separation by electrophoresis.

In assay [2] the test system is T2, RSR (Rad17–Rfc2–Rfc3–Rfc4–Rfc5) complex.
T2 construct: untagged
T2 sequence (O75943 whole entry): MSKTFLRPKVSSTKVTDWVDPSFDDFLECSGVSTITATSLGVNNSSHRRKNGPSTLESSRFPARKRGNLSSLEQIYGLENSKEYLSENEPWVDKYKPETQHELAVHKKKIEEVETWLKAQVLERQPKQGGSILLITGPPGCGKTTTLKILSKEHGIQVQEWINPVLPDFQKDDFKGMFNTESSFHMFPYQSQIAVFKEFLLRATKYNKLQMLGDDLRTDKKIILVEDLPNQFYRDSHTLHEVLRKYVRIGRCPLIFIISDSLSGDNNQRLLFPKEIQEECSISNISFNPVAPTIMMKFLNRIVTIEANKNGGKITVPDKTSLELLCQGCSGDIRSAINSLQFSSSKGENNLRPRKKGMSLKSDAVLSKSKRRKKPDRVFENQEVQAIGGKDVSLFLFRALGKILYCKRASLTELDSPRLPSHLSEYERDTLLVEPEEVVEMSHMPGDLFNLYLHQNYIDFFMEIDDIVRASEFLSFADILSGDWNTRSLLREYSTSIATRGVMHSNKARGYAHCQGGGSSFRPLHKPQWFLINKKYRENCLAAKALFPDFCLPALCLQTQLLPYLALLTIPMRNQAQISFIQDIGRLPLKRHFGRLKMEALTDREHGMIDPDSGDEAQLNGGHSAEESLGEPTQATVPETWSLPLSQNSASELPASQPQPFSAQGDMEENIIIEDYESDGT
T2 sequence (P35250 whole entry, further chain): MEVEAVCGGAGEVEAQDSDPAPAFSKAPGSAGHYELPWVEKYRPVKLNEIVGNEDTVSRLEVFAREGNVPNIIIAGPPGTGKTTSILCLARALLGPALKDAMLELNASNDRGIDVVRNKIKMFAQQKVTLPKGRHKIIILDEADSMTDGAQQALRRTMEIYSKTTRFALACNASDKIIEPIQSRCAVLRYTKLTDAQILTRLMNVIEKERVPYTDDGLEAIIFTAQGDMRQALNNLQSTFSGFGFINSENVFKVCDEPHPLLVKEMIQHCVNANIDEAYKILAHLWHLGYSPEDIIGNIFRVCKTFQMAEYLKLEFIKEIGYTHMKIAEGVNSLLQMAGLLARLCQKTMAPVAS
T2 sequence (P40938 whole entry, further chain): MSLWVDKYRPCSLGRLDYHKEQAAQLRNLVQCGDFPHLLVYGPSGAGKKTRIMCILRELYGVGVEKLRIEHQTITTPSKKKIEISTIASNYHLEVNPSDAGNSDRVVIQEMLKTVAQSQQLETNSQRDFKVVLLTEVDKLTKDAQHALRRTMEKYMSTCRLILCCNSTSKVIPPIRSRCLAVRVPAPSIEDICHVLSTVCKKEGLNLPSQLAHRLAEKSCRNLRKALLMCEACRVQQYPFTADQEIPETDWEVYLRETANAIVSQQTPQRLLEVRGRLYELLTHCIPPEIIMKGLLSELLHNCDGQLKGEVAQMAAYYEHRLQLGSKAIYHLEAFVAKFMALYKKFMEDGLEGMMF
T2 sequence (P35249 whole entry, further chain): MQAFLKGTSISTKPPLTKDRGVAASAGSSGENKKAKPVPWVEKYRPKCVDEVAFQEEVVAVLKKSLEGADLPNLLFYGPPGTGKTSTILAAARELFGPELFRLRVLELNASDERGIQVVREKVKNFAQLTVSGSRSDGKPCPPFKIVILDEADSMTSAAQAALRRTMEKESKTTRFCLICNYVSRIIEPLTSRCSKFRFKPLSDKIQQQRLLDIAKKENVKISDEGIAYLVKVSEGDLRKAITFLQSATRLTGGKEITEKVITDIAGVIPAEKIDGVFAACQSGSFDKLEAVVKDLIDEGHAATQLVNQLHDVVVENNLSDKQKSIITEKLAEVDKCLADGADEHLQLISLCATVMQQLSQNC
T2 sequence (P40937 whole entry, further chain): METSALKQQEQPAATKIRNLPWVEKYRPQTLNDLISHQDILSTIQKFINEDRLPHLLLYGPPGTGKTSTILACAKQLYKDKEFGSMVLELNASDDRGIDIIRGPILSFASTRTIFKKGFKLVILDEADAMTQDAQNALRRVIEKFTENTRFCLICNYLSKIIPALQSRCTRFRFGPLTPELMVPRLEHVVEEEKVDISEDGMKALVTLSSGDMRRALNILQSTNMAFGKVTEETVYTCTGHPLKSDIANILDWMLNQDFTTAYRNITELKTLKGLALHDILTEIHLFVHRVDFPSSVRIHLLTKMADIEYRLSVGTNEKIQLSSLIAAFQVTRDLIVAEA
Described as above. As to conditions: 1 mM ATPγS, 7 mM MgCl2, pH 7.5, 30 °C; RHR clamp, human RPA, 5' recessed primer-template DNA; nonhydrolyzable ATP analog. It counts as binding.

T1 sequence (P35251 whole entry): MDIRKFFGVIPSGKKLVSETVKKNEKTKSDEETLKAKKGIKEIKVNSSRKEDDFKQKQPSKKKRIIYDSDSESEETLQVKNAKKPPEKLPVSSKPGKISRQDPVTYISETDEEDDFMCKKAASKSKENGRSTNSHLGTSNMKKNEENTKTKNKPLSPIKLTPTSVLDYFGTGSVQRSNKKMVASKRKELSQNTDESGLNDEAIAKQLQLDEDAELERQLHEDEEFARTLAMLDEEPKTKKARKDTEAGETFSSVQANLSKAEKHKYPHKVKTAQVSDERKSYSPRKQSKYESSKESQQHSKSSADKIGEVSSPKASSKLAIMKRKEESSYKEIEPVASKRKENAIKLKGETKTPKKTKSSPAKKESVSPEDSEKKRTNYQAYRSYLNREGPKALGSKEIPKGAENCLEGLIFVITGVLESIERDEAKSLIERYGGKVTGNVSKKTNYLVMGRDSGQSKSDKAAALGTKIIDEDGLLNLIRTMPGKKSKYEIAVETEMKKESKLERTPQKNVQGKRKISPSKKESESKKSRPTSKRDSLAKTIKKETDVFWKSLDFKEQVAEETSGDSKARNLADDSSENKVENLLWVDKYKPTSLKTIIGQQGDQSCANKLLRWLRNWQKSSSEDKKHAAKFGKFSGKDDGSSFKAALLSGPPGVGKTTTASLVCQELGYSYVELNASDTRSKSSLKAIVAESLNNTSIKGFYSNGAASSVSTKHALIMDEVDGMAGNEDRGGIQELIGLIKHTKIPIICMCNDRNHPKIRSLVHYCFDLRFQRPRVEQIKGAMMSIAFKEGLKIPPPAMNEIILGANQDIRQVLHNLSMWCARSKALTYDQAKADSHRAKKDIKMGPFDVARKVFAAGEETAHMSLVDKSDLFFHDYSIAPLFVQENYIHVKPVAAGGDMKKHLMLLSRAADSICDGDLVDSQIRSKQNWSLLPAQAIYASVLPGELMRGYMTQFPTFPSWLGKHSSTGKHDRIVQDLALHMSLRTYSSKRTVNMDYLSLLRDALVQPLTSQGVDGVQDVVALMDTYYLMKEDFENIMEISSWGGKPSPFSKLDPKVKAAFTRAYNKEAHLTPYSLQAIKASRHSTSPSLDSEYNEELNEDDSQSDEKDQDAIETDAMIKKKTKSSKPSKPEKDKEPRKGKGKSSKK
T1 sequence (P35250 whole entry, further chain): as the sequence (P35250 whole entry, further chain) above
T1 sequence (P40938 whole entry, further chain): as the sequence (P40938 whole entry, further chain) above
T1 sequence (P35249 whole entry, further chain): as the sequence (P35249 whole entry, further chain) above
T1 sequence (P40937 whole entry, further chain): as the sequence (P40937 whole entry, further chain) above

Turning to `Nc1ncnc2c1ncn2[C@@H]1O[C@H](COP(=O)(O)OP(=O)(O)OP(O)(O)=S)[C@@H](O)[C@H]1O` [ATPγS, adenosine 5′-O-3′-thiotriphosphate], the “bead pull-down of clamp-clamp loader-DNA ternary complex, Western blot” value is reported as “ternary complex formation on both substrates in the presence of ATPγS was observed” in assay [1] and “in the presence of ATPγS ternary complex formation, but not clamp loading” in assay [2].
